Six molecules from US9233166B2, “Supramolecular functionalization of graphitic nanoparticles for drug delivery” (The Board of Trustees of the Leland Stanford Junior …, priority 2007, dated 2016) can be followed below.

Where “and” joins values, the source holds several entries; their conditions need not be identical. Identical values can stand only once. Like-named read-outs stand apart in the source and are kept apart here. Bounds are passed on as bounds.

Series [1] has as its system HCT-116 colon cancer cell line. Briefly: MTS cell toxicity assay, HCT-116. The format is cell-based. As to conditions: Homo sapiens. The procedure:
(§1) HCT-116 colon cancer cell line, OVCAR-3 ovarian cancer cell line, U87MG glioma cell line and MDA-MB-435 breast cancer cell line were all obtained from American Type Culture Collect (ATCC) and cultured in the recommended conditions. […] After incubation for 72 hours, relative cell viability was measured by standard MTS assay using a CellTiter 96 kit (promega). For NGO-PEG toxicity test, cell medium containing NGO-PEG was changed to fresh medium at 72 h before cell viability test to avoid the dark color of NGO-PEG at high concentrations, which interferes the absorbance reading in MTS assay.

The subject of series [2] is OVCAR-3 ovarian cancer cell line. Put plainly: MTS cell toxicity assay, OVCAR-3. The format is cell-based. As to conditions: Homo sapiens, 72 h drug incubation. As for the experimental part: as §1
On the technique in general: Tetrazolium dyes change colour on reduction, which living cells bring about.

Another series relates to U87MG glioma cell line. Briefly: MTS cell toxicity assay, U87MG. Type of series: cell-based. The settings on record: Homo sapiens, U-87 MG, 72 h drug incubation. The procedure: as §1
The test system of series [3] is MDA-MB-435 breast cancer cell line. Put plainly: MTS cell toxicity assay, MDA-MB-435. Type of series: cell-based. As to conditions: Homo sapiens, MDA-MD-435 (breast), 72 h drug incubation. The procedure: as §1
Series [4] in a line: Water solubility of NGO-PEG-SN38. The format is physicochemical. The settings on record: in terms of SN38. The source says:
The existence of aromatic conjugated domains on GO has been shown by NMR previously (Lerf, A.; He, H. Y.; Forster, M.; Klinowski, J., J. Phys. Chem. B, 1998, 102, 4477-4482).

A further series concerns MCF-7 cells. Put plainly: MTS cell viability assay, MCF-7 cells (SWNT-DOX formulations). The format is cell-based. As to conditions: integrin αvβ3 negative.
The nature of series [5]: Absorbance of free doxorubicin on heating. As to conditions: after 24 hours. The format is physicochemical. As for the experimental part:
The diameter distributions of two types of SWNTs were obtained by AFM topographic height measurements of ˜100 PL-PEG functionalized nanotubes in each material, after depositing them on Si substrates from solutions (FIG. 12). Both Laser PL-SWNT-DOX and Hipco PL-SWNT-DOX (DOX loaded at pH=9) were incubated in PBS and kept at various temperatures (20° C., 40° C., 60° C., 80° C.). Released doxorubicin was removed at different time points and the retained doxorubicin was measured by UV-VIS-NIR to get temperature dependent releasing curves (FIGS. 13A and 13B). […] This was corrected in obtaining our release curves. The half-lives (t1/2) of doxorubicin on PEGylated SWNTs at various temperatures were obtained by fitting the releasing curves to exponential decays. We then used Arrhenius fits of 1/t1/2(T)=A×exp(−EB/kBT) where A is a constant for extracting binding energy EB of DOX on the PEGylated Hipco and laser-ablation nanotubes.

In series [6] the test system is Raji B-cell lymphoma tumors. Briefly: In vivo treatment of Raji tumor bearing SCID mice. The procedure:
Each SCID mouse was subcutaneously injected with 10 million Raji cells on its back. The treatment was initiated when the tumors reached sizes of ˜400 mm^3 (2-3 weeks after tumor inoculation). The tumor bearing mice were i.v. injected with different formulations of DOX including free DOX, SWNT-DOX and Doxil at 5 mg/kg of normalized DOX dose (or 10 mg/kg for SWNT-DOX) as well as related controls weekly. The tumor sizes were measured by a caliper three times a week and calculated as the volume=(tumor length)×(tumor width)^2/2. Relative tumor volumes were calculated as V/V0 (V0 was the tumor volume when the treatment was initiated). Mice were weighed with the relative body weights normalized to their initial weights.
Raji tumor bearing SCID mice were treated with different formulations of DOX at the weekly by i.v. injection. Plain SWNT and separated injections of plain SWNT plus free DOX were used as the controls. The tumor sizes were normalized to their initial size when the treatment was started (FIG. 26A-D).

The conditions of series [7]: mouse, in vivo, iv.
Protocol: Blood circulation was measured by drawing ˜15 μl blood from the tail vein of Raji tumor bearing SCID mice post injection of free DOX or SWNT-DOX. The blood samples were dissolved in a lysis buffer 1 (1% SDS, 1% Triton X-100, 40 mM Tris Acetate, 10 mM EDTA, 10 mM DTT) with brief sonication. Concentration of SWNTs in the blood was measured by a Raman method. […] In brief, DOX was extracted by incubating blood samples in 1 ml of 0.75 M HCl in isopropanol (IPA) at −20° C. overnight. After centrifuge at 24,000 g for 15 minutes, the supernatant was taken for fluorescence measurement using a fluorolog-3 fluorometer. A standard calibration curve with obtained by measuring fluorescence of extraction solutions with known DOX concentrations. DOX loaded on SWNTs can be completely pulled from nanotubes by the extraction solution with ˜100% recover of fluorescence (DOX fluorescence is quenched once loaded on nanotubes).
Blood circulation data were plotted as the blood DOX or SWNT levels (unit: % ID/g) against time p.i. […]
We injected free DOX or SWNT-DOX to Raji tumor bearing SCID mice by intravenous (i.v.) injection via tail veins. Blood was drawn at different time points post injection (p.i.) with DOX concentrations measured by fluorescence spectra.
Another series concerns 4T1 tumors. Put plainly: In vivo treatment of 4T1 murine breast cancer model. The arrangement: species or system Balb/c mice. As to conditions: PTX 5 mg/kg every 6 days. As for the experimental part:
Female Balb/c mice with implanted 4T1 tumors were treated with the compositions shown in the graphs at the same PTX dose (5 mg/kg, every 6 days). […] No obvious side effects were seen. No mouse in the treatment group died, and no average drop in body weigh was seen (FIG. 19). The tumor growth curves were obtained with 5 mice in each group to get the average tumor volumes and standard deviations.
All animal experiments were performed under a protocol approved by Stanford's Administrative Panel on Laboratory Animal Care (APLAC). The 4T1 tumor models were generated by subcutaneous injection of 2×10^6 cells in 50 μl PBS into the right shoulder of female Balb/c mice. The mice were used for treatment when the tumor volume reached 50-100 mm^3 (˜6 days after tumor inoculation). […] The tumor sizes were measured by a caliper every the other day and calculated as the volume=(tumor length)×(tumor width)^2/2. Relative tumor volumes (FIG. 24) were calculated as V/V0 (V0 was the tumor volume when the treatment was initiated).
The mice were observed daily for clinical symptoms and the tumor volume was measured by a digital caliper every other day.

The subject of series [8] is Raji B-cells. Briefly: MTS cell viability assay, Raji cells (NGO-PEG-Rituxan/DOX). The settings on record: 2 uM and 10 uM DOX, vs free DOX, NGO-PEG/DOX and unconjugated mixture. Type of series: cell-based. The procedure:
Doxorubicin (DOX) loading onto NGO-PEG (and NGO-PEG-Rituxan) was done by simply mixing 0.5 mM of DOX with the NGO-PEG solution (˜0.2 mg/ml) at pH 8 overnight. Unbound excess DOX was removed by filtration through a 100 kDa filter and repeated rinse. The formed NGO-PEG/DOX complexes were re-suspended and stored at 4° C. Concentration of DOX loaded onto NGO-PEG was measured by the absorbance peak at 490 nm (characteristic of DOX, after subtracting the absorbance of NGO-PEG at that wavelength) with a molar extinction coefficient of 1.05×104 M·cm-1. Both Raji and CEM cells were incubated with free DOX, NGO-PEG/DOX, NGO-PEG/DOX+Rituxan (unconjugated) and NGO-PEG-Ri/DOX at DOX concentrations of 2 μM or 10 μM for 2 hours and washed by PBS twice before transferring into fresh cell medium. After another 48 h incubation, Cell viability was measured by the MTS assay with CellTiter96 kit (Promega).
For DOX loaded onto NGO-PEG-rituximab, we incubated the conjugates with Raji cells at 2 uM and 10 uM DOX concentrations.

For series [9], the system named is Raji B-cells. Briefly: NIR photoluminescence imaging of cell binding. Type of series: cell-based. As to conditions: 4° C., Raji B-cells vs CEM T-cells. As for the experimental part: We covalently conjugated a B-cell specific antibody, Rituxan® rituximab (anti-CD20) to NGO-PEG (NGO-PEG-rituximab) to selectively recognize and bind to B cell lymphoma cells. We incubated B-cells and T-cells in solutions of NGO-PEG-rituximab conjugates at 4° C. to allow the conjugates to interact with the cell surface but block internalization via endocytosis. The cells were then washed and imaged by detecting NIR photoluminescence from 1100 to 2200 nm using an InGaAs detector under 658 nm excitation (laser spot size ˜1 μm). […] This confirmed selective NGO-PEG-Ab binding to B-cells over T cells. […] Nevertheless, the fluorescence quantum yield (QY) in the NIR-IR region appeared low.
Thiolated Rituxan® was conjugated to the amine groups on NGO-PEG via a sulfo-SMCC linker (Pierce Inc.). […] All NIR fluorescence images were taken using an inverted NIR fluorescence microscope in confocal mode. […] The collected light went through a 900 nm long pass filter (Omega) and a 1100 nm long pass filter (ThorLabs) to block reflected excitation and reduce background fluorescence from the sample holder. […] Background fluorescence from the sample holder (˜160 counts) was subtracted to give relevant statistics about the effectiveness of NGO-PEG binding.

[10] abbreviates: HCT-116 (colon), 72 h drug incubation, read-out: IC50 values.

Protocol for MCF-7 cells: MCF-7 breast cancer cells and U87MG human glioblastoma cancer cells (both from American Type Culture Collection, ATCC) were cultured under standard conditions. Cell viability after various treatments was measured by the MTS assay with CellTiter96 kit (Promega).

As for `CCc1c2c(nc3ccc(OC(=O)N4CCC(N5CCCCC5)CC4)cc13)-c1cc3c(c(=O)n1C2)COC(=O)[C@]3(O)CC` [CPT-11, irinotecan], the IC50 in series [1] (HCT-116, 72 h, read-out: 50% growth inhibition concentration (IC50)) was about 10000 nM; in [1] (setting [10]), 11000 nM; in series [2], 3000 nM; in the series on U87MG glioma cell line, over 20000 nM; in series [3], 6000 nM.

Regarding `CCc1c2c(nc3ccc(O)cc13)-c1cc3c(c(=O)n1C2)COC(=O)[C@]3(O)CC` [SN38, 7-ethyl-10-hydroxycamptothecin], the IC50 in series [1] (setting [10]) was 15 nM; in series [2] it was 0.3 nM; in the series with U87MG glioma cell line it was 67 nM; in [3] it was 3 nM. The water solubility entry in series [4] is recorded as “very insoluble in water”.

Take `COc1cccc2c1C(=O)c1c(O)c3c(c(O)c1C2=O)C[C@@](O)(C(=O)CO)C[C@@H]3O[C@H]1C[C@H](N)[C@H](O)[C@H](C)O1` [free DOX, doxorubicin]: in the series on MCF-7 cells, the “toxicity (concentration dependent survival)” value was “higher toxicity than both PL-SWNT-DOX and PL-SWNT-RGD-DOX”. Further, in series [5] (60° C.), the “drop of absorbance on heating” value is given as about 30%. The “drop of absorbance on heating” value in series [5] (80° C.) is about 50%. Besides, the mice death in series [6] (5 mg/kg) was 2 out of 10 and 2. The “tumor growth (folds of initial size)” value in [6] (5 mg/kg DOX weekly i.v., in two weeks) amounted to 2.90±0.19 folds. The same molecule gave a body weight loss in [6] (5 mg/kg, within two weeks) of about 20%. The “mouse death and body weight drop” value in series [6] (10 mg/kg) is “all the tested mice died within 2 weeks”. Besides, in [7], the DOX circulation half-life is 12.6 min and the “total area under curve (AUC0-∞)” value is 5300 ng·h/mL.

With `CC(=O)O[C@H]1C(=O)[C@@]2(C)[C@H]([C@H](OC(=O)c3ccccc3)[C@]3(O)C[C@H](OC(=O)[C@H](O)[C@@H](NC(=O)c4ccccc4)c4ccccc4)C(C)=C1C3(C)C)[C@]1(OC(C)=O)CO[C@@H]1C[C@@H]2O` [free PTX, paclitaxel], in the series with 4T1 tumors, the lung metastasis entry is listed as “obvious lung metastasis was observed”.

For the molecule NGO-PEG-Rituxan/DOX, in the series on Raji B-cells [8], the “DOX delivery and cell killing” value is “Much enhanced DOX delivery and cell killing”.

As for NGO-PEG-rituximab, the “cell surface binding (NIR photoluminescence)” value in the series on Raji B-cells [9] is “selectively on positive Raji B-cells surface and not on negative CEM T-cells”.
